Data taken from the supplement of paper PMC6045584.
± gives the standard deviation of the averaged measurements.

Assays:
[1] = compound: CC(=O)c1c(C)c2cnc(Nc3ccc(N4CCNCC4)cn3)nc2n(C2CCCC2)c1=O; experiment: surviving fraction relative to DMSO-only wells; higher = less growth inhibition; details: exposure time: 5 days
How it was run: (§1)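 Tumour cell lines were seeded in log phase at 250–500 cells per well into 384-well plates. Starting 24 hours later, inhibitors were present continuously for five days at 0.5, 1, 5, 10, 50, 100, 500 and 1000 nM. Surviving fraction, from CellTiter-Glo luminescence, is normalised to the median of DMSO-only wells. Three screens per line were required, with replicate Pearson r >0.7 and median Z' >0.3 for a line to be kept.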

CARBOPLATIN [2] = compound: T1, O=C(O)C1(C(=O)O)CCC1.[NH2-].[NH2-].[Pt+2] [CARBOPLATIN]; experiment: as above; details: exposure time: 5 days
How it was run: as §1

[3] = compound: CC(=O)NCC(=O)N1[C@@H]2CC[C@H]1c1ccc(Nc3ncc(C(F)(F)F)c(NC4CCC4)n3)cc12; experiment: as above; details: exposure time: 5 days
How it was run: as §1

YM155 [4] = compound: T2, COCC[n+]1c2c(n(Cc3cnccn3)c1C)C(=O)c1ccccc1C2=O [YM155]; experiment: as above; details: exposure time: 5 days
How it was run: as §1

OSI-906 [5] = compound: T3, C[C@]1(O)C[C@@H](c2nc(-c3ccc4ccc(-c5ccccc5)nc4c3)c3c(N)nccn32)C1 [OSI-906]; experiment: as above; details: exposure time: 5 days
How it was run: as §1

PACLITAXEL [6] = compound: T4, CC(=O)O[C@H]1C(=O)[C@@]2(C)[C@H]([C@H](OC(=O)c3ccccc3)[C@]3(O)C[C@H](OC(=O)[C@H](O)[C@@H](NC(=O)c4ccccc4)c4ccccc4)C(C)=C1C3(C)C)[C@]1(OC(C)=O)CO[C@@H]1C[C@@H]2O [PACLITAXEL]; experiment: as above; details: exposure time: 5 days
How it was run: as §1

CELECOXIB [7] = compound: T5, Cc1ccc(-c2cc(C(F)(F)F)nn2-c2ccc(S(N)(=O)=O)cc2)cc1 [CELECOXIB]; experiment: as above; details: exposure time: 5 days
How it was run: as §1

GEFITINIB [8] = compound: T6, COc1cc2ncnc(Nc3ccc(F)c(Cl)c3)c2cc1OCCCN1CCOCC1 [GEFITINIB]; experiment: as above; details: exposure time: 5 days
How it was run: as §1

CAMPTOTHECIN [9] = compound: T7, CC[C@@]1(O)C(=O)OCc2c1cc1n(c2=O)Cc2cc3ccccc3nc2-1 [CAMPTOTHECIN]; experiment: as above; details: exposure time: 5 days
How it was run: as §1

[10] = compound: CC(=O)c1c(C)c2cnc(Nc3ccc(N4CCNCC4)cn3)nc2n(C2CCCC2)c1=O; experiment: area under dose-response curve of surviving fraction (unscaled, Aref=0) (surviving fraction x log10(nM)); higher = more resistant; details: exposure time: 5 days; dose range 0.5-1000 nM
How it was run: (§2)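 Inhibitor was applied to tumour cell lines at eight concentrations (0.5 to 1000 nM) for five days in 384-well plates. Luminescence from CellTiter-Glo, scaled to DMSO-only wells, gave surviving fractions in three screens per line, and these were fitted by 3-parameter logistic regression with the drc R package. The area under the curve is an unscaled activity area. Aref was 0, and dose was on a log10 scale.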

CARBOPLATIN [11] = compound: T1, CARBOPLATIN; experiment: as above; details: exposure time: 5 days; dose range 0.5-1000 nM
How it was run: as §2

[12] = compound: CC(=O)NCC(=O)N1[C@@H]2CC[C@H]1c1ccc(Nc3ncc(C(F)(F)F)c(NC4CCC4)n3)cc12; experiment: as above; details: exposure time: 5 days; dose range 0.5-1000 nM
How it was run: as §2

YM155 [13] = compound: T2, YM155; experiment: as above; details: exposure time: 5 days; dose range 0.5-1000 nM
How it was run: as §2

OSI-906 [14] = compound: T3, OSI-906; experiment: as above; details: exposure time: 5 days; dose range 0.5-1000 nM
How it was run: as §2

PACLITAXEL [15] = compound: T4, PACLITAXEL; experiment: as above; details: exposure time: 5 days; dose range 0.5-1000 nM
How it was run: as §2

CELECOXIB [16] = compound: T5, CELECOXIB; experiment: as above; details: exposure time: 5 days; dose range 0.5-1000 nM
How it was run: as §2

GEFITINIB [17] = compound: T6, GEFITINIB; experiment: as above; details: exposure time: 5 days; dose range 0.5-1000 nM
How it was run: as §2

CAMPTOTHECIN [18] = compound: T7, CAMPTOTHECIN; experiment: as above; details: exposure time: 5 days; dose range 0.5-1000 nM
How it was run: as §2

## SCC36 HEADNECK
[1]; 0.5 nM
  surviving fraction: 1.02 ± 0.1
[1]; 1 nM
  surviving fraction: 1.01 ± 0.015
[1]; 5 nM
  surviving fraction: 1.17 ± 0.064
[1]; 10 nM
  surviving fraction: 1.11 ± 0.056
[1]; 50 nM
  surviving fraction: 1.1 ± 0.084
[1]; 100 nM
  surviving fraction: 1.07 ± 0.025
[1]; 500 nM
  surviving fraction: 0.923 ± 0.094
[1]; 1000 nM
  surviving fraction: 0.897 ± 0.025
CARBOPLATIN [2]; 0.5 nM
  surviving fraction: 1.07 ± 0.03
CARBOPLATIN [2]; 1 nM
  surviving fraction: 0.992 ± 0.15
CARBOPLATIN [2]; 5 nM
  surviving fraction: 1.09 ± 0.096
CARBOPLATIN [2]; 10 nM
  surviving fraction: 1.07 ± 0.097
CARBOPLATIN [2]; 50 nM
  surviving fraction: 1.06 ± 0.17
CARBOPLATIN [2]; 100 nM
  surviving fraction: 1.04 ± 0.078
CARBOPLATIN [2]; 500 nM
  surviving fraction: 1.05 ± 0.031
CARBOPLATIN [2]; 1000 nM
  surviving fraction: 0.85 ± 0.12
[3]; 0.5 nM
  surviving fraction: 1.01 ± 0.1
[3]; 1 nM
  surviving fraction: 1.04 ± 0.15
[3]; 5 nM
  surviving fraction: 1.13 ± 0.16
[3]; 10 nM
  surviving fraction: 1.12 ± 0.066
[3]; 50 nM
  surviving fraction: 0.945 ± 0.12
[3]; 100 nM
  surviving fraction: 0.731 ± 0.052
[3]; 500 nM
  surviving fraction: 0.428 ± 0.048
[3]; 1000 nM
  surviving fraction: 0.431 ± 0.051
YM155 [4]; 0.5 nM
  surviving fraction: 1.01 ± 0.035
YM155 [4]; 1 nM
  surviving fraction: 1.02 ± 0.042
YM155 [4]; 5 nM
  surviving fraction: 1.06 ± 0.14
YM155 [4]; 10 nM
  surviving fraction: 0.817 ± 0.07
YM155 [4]; 50 nM
  surviving fraction: 0.261 ± 0.056
YM155 [4]; 100 nM
  surviving fraction: 0.105 ± 0.0036
YM155 [4]; 500 nM
  surviving fraction: 0.04 ± 0.0056
YM155 [4]; 1000 nM
  surviving fraction: 0.0387 ± 0.0015
OSI-906 [5]; 0.5 nM
  surviving fraction: 0.783 ± 0.039
OSI-906 [5]; 1 nM
  surviving fraction: 0.816 ± 0.062
OSI-906 [5]; 5 nM
  surviving fraction: 0.796 ± 0.083
OSI-906 [5]; 10 nM
  surviving fraction: 0.805 ± 0.055
OSI-906 [5]; 50 nM
  surviving fraction: 0.742 ± 0.076
OSI-906 [5]; 100 nM
  surviving fraction: 0.834 ± 0.066
OSI-906 [5]; 500 nM
  surviving fraction: 0.64 ± 0.19
OSI-906 [5]; 1000 nM
  surviving fraction: 0.57 ± 0.046
PACLITAXEL [6]; 0.5 nM
  surviving fraction: 0.966 ± 0.035
PACLITAXEL [6]; 1 nM
  surviving fraction: 0.8 ± 0.0036
PACLITAXEL [6]; 5 nM
  surviving fraction: 0.246 ± 0.041
PACLITAXEL [6]; 10 nM
  surviving fraction: 0.154 ± 0.042
PACLITAXEL [6]; 50 nM
  surviving fraction: 0.103 ± 0.007
PACLITAXEL [6]; 100 nM
  surviving fraction: 0.109 ± 0.026
PACLITAXEL [6]; 500 nM
  surviving fraction: 0.108 ± 0.006
PACLITAXEL [6]; 1000 nM
  surviving fraction: 0.114 ± 0.017
CELECOXIB [7]; 0.5 nM
  surviving fraction: 1.05 ± 0.029
CELECOXIB [7]; 1 nM
  surviving fraction: 0.924 ± 0.11
CELECOXIB [7]; 5 nM
  surviving fraction: 1.13 ± 0.057
CELECOXIB [7]; 10 nM
  surviving fraction: 1.09 ± 0.025
CELECOXIB [7]; 50 nM
  surviving fraction: 1.16 ± 0.12
CELECOXIB [7]; 100 nM
  surviving fraction: 1.08 ± 0.044
CELECOXIB [7]; 500 nM
  surviving fraction: 1.13 ± 0.079
CELECOXIB [7]; 1000 nM
  surviving fraction: 1.04 ± 0.14
GEFITINIB [8]; 0.5 nM
  surviving fraction: 1.08 ± 0.091
GEFITINIB [8]; 1 nM
  surviving fraction: 1.02 ± 0.023
GEFITINIB [8]; 5 nM
  surviving fraction: 1.13 ± 0.057
GEFITINIB [8]; 10 nM
  surviving fraction: 0.972 ± 0.057
GEFITINIB [8]; 50 nM
  surviving fraction: 0.735 ± 0.11
GEFITINIB [8]; 100 nM
  surviving fraction: 0.643 ± 0.1
GEFITINIB [8]; 500 nM
  surviving fraction: 0.45 ± 0.03
GEFITINIB [8]; 1000 nM
  surviving fraction: 0.397 ± 0.05
CAMPTOTHECIN [9]; 0.5 nM
  surviving fraction: 0.804 ± 0.15
CAMPTOTHECIN [9]; 1 nM
  surviving fraction: 0.703 ± 0.13
CAMPTOTHECIN [9]; 5 nM
  surviving fraction: 0.704 ± 0.14
CAMPTOTHECIN [9]; 10 nM
  surviving fraction: 0.495 ± 0.018
CAMPTOTHECIN [9]; 50 nM
  surviving fraction: 0.332 ± 0.012
CAMPTOTHECIN [9]; 100 nM
  surviving fraction: 0.156 ± 0.0031
CAMPTOTHECIN [9]; 500 nM
  surviving fraction: 0.0463 ± 0.012
CAMPTOTHECIN [9]; 1000 nM
  surviving fraction: 0.0413 ± 0.004
[10]
  area under dose-response curve: 3.5
CARBOPLATIN [11]
  area under dose-response curve: 3.45
[12]
  area under dose-response curve: 2.74
YM155 [13]
  area under dose-response curve: 1.77
OSI-906 [14]
  area under dose-response curve: 2.48
PACLITAXEL [15]
  area under dose-response curve: 0.905
CELECOXIB [16]
  area under dose-response curve: 3.53
GEFITINIB [17]
  area under dose-response curve: 2.61
CAMPTOTHECIN [18]
  area under dose-response curve: 1.36
